Assay results reported in paper PMC2736342 (Biochemistry, 2009).
Like-named read-outs stand apart in the source and are kept apart here. Values belong to the molecule of their own block, whether it stands above or below them. Ends that are not written are not given here. Peptide text beside a SMILES is read from it. * marks the point of attachment. Biotin = O=C1N[C@H]2[C@H](CS[C@H]2CCCCC(=O)*)N1

Legend:
I56C/Q333C Gαi GDP = I56C/Q333C Gαi GDP (Rattus norvegicus, UniProt P10824, I56C/INS119HHHHHH/Q333C); assay: SPR binding to immobilized peptide, I56C/Q333C GDP; settings: pH 7.4
D328R Gαi GDP = D328R Gαi GDP (Rattus norvegicus, UniProt P10824, D328R/INS119HHHHHH); assay: SPR binding to immobilized peptide, D328R GDP; settings: pH 7.4
WT Gαi GDP = WT Gαi GDP (Rattus norvegicus, UniProt P10824, INS119HHHHHH); assay: SPR binding to immobilized peptide, wild-type GDP; settings: pH 7.4
D328R Gαi GDP•AlF4^− = D328R Gαi GDP•AlF4^− (Rattus norvegicus, UniProt P10824, D328R/INS119HHHHHH); assay: SPR binding to immobilized peptide, D328R GDP-AlF4^−; settings: pH 7.4
WT Gαi GDP •AlF4^− = WT Gαi GDP •AlF4^− (Rattus norvegicus, UniProt P10824, INS119HHHHHH); assay: SPR binding to immobilized peptide, wild-type GDP-AlF4^−; settings: pH 7.4
[1] = target: I56C/Q333C Gαi GDP•AlF4^− (Rattus norvegicus, UniProt P10824, I56C/INS119HHHHHH/Q333C); assay: SPR binding to immobilized peptide, I56C/Q333C GDP-AlF4^−; settings: pH 7.4
wild-type Gαi1 subunit [2] = target: T1, wild-type Gαi1 subunit (rat, UniProt P10824 2-354); assay: SPR
D328R Gαi1 subunit [3] = target: T2, D328R Gαi1 subunit (rat, UniProt P10824 2-354, D328R); assay: SPR
wild-type Gαi1 subunit [4] = target: T1, wild-type Gαi1 subunit; assay: SPR; remark: listed apart in the source
D328R Gαi1 subunit [5] = target: T2, D328R Gαi1 subunit; assay: SPR; remark: listed apart in the source

B1: peptide KB-752 (peptide)
peptide: Biotin-SRVTWYDFLMEDTKSR
Kd (wild-type Gαi1 subunit [2]): 2.84 ± 0.81 µM
Kd (D328R Gαi1 subunit [3]): 1.28 ± 0.02 µM

B2: peptide KB-1753 (peptide)
peptide: Biotin-SSRGYYHGIWVGEEGRLSR
Kd (wild-type Gαi1 subunit [4]): 1.1 ± 0.1 µM
Kd (D328R Gαi1 subunit [5]): 0.26 ± 0.04 µM

Now from value to molecule:

koff (I56C/Q333C Gαi GDP): 0.22 ± 0.03 s⁻¹
kon (I56C/Q333C Gαi GDP): 7750 M⁻¹ s⁻¹
koff (D328R Gαi GDP): 0.01 ± 0.001 s⁻¹
kon (D328R Gαi GDP): 8560 M⁻¹ s⁻¹
koff (WT Gαi GDP): 0.06 ± 0.01 s⁻¹
kon (WT Gαi GDP): 21100 M⁻¹ s⁻¹
Molecule: CSCC[C@H](NC(=O)[C@H](CC(C)C)NC(=O)[C@H](Cc1ccccc1)NC(=O)[C@H](CC(=O)O)NC(=O)[C@H](Cc1ccc(O)cc1)NC(=O)[C@H](Cc1c[nH]c2ccccc12)NC(=O)[C@@H](NC(=O)[C@@H](NC(=O)[C@H](CCCNC(=N)N)NC(=O)[C@@H](N)CO)C(C)C)[C@@H](C)O)C(=O)N[C@@H](CCC(=O)O)C(=O)N[C@@H](CC(=O)O)C(=O)N[C@H](C(=O)N[C@@H](CCCCN)C(=O)N[C@@H](CO)C(=O)N[C@@H](CCCNC(=N)N)C(=O)O)[C@@H](C)O [KB-752] (H-SRVTWYDFLMEDTKSR-OH)

koff (D328R Gαi GDP•AlF4^−): 0.003 ± 0.0004 s⁻¹
kon (D328R Gαi GDP•AlF4^−): 8810 M⁻¹ s⁻¹
koff (WT Gαi GDP •AlF4^−): 0.025 ± 0.001 s⁻¹
kon (WT Gαi GDP •AlF4^−): 22900 M⁻¹ s⁻¹
koff [1]: 0.006 ± 0.0008 s⁻¹
kon [1]: 16800 M⁻¹ s⁻¹
Molecule: CC[C@H](C)[C@H](NC(=O)CNC(=O)[C@H](Cc1c[nH]cn1)NC(=O)[C@H](Cc1ccc(O)cc1)NC(=O)[C@H](Cc1ccc(O)cc1)NC(=O)CNC(=O)[C@H](CCCNC(=N)N)NC(=O)[C@H](CO)NC(=O)[C@@H](N)CO)C(=O)N[C@@H](Cc1c[nH]c2ccccc12)C(=O)N[C@H](C(=O)NCC(=O)N[C@@H](CCC(=O)O)C(=O)N[C@@H](CCC(=O)O)C(=O)NCC(=O)N[C@@H](CCCNC(=N)N)C(=O)N[C@@H](CC(C)C)C(=O)N[C@@H](CO)C(=O)N[C@@H](CCCNC(=N)N)C(=O)O)C(C)C [KB-1753] (H-SSRGYYHGIWVGEEGRLSR-OH)
